Source: paper PMC9905731, “PIN1 and PIN4 inhibition via parvulin impeders Juglone, PiB, ATRA, 6,7,4′-THIF, KPT6566, and EGCG thwarted hepatitis B virus replication” (Frontiers in Microbiology, 2023)
Read-outs that look alike come from different tables or passages of the source.

How the values were obtained:
HBV cccDNA = HBV cccDNA levels by Hirt extraction and Southern blotting; type: cell-based, hepatitis B virus; details: HBV-infected HepG2-hNTCP-C9 cells, 10 days; 20 μM Juglone or PiB, 30 μM ATRA, 6,7,4′-THIF or KPT-6566, 40 μM EGCG
Protocol: Mock-infected HepG2-hNTCP-C9 cells (lane 1) or HBV-infected HepG2-hNTCP-C9 cells (lanes 2–3) were treated with solvent (lane 2) or 20 μM Juglone, 20 μM PiB, 30 μM ATRA, 30 μM 6,7,4′-THIF, 30 μM KPT6566, or 40 μM EGCG (lane 3) for 10 days. HBV cccDNA levels were determined by the Hirt extraction method, as described previously ([Saeed et al., 2019]). Data are presented from three independent experiments.
HBV cccDNA synthesis was examined using the protein-free Hirt cccDNA extraction method. Briefly, HBV-infected PIN1 or PIN4 KD cells at approximately 100% confluency were incubated for 10 days, lysed with 10 mM EDTA and 10 mM Tris–HCl [pH 7.5] containing 0.6% SDS-TE buffer, treated for 16 h by adding 5 M NaCl to the final concentration of 1 M, and precipitated by centrifugation for 30 min at 14,500 × g. The supernatants were subjected to multiple phenol extractions (two times) followed by cccDNA extraction via phenol/chloroform. The supernatant containing cccDNA was precipitated by ethanol and furthermore analyzed by Southern blotting. The HBV cccDNA ChIP was performed using cccDNA-specific primers and analyzed by PCR (GeneAmp 2,700, Applied Biosystems), as described previously ([Bichko et al., 1985]; [Piracha et al., 2018], [2020]; [Saeed et al., 2019], [2021]). From the clinical specimens, HBV cccDNA levels were examined, as described previously ([Zhang et al., 2017]), using 251F 5′-GAC TYG TGG TGG ACT TCT C-3′ and 1190R 5′-TCA GCA AAY ACT YGG CA-3′ set of primers.

[1] = MTT cell cytotoxicity assay; type: cell-based; details: human, Huh7, HepAD38, HepG2, HepG2.2.15 cells, cell line not stated, read-out: 50% cytotoxic concentration (CC50)
Protocol: Since PIN1 and PIN4 were highly expressed in HCC cells, we speculated that the inhibition of parvulins via Juglone, PiB, ATRA, 6,7,4′-THIF, KPT6566, and EGCG might affect HBV replication (Figure 2A). The optimum dosage was determined in several HCC cell lines. Compared to mock or solvent-treated 10, 20, 30, 50, or 100 μM, drug-treated cell viabilities were determined by the MTT assay in Huh7, HepAD38, HepG2, and HepG2.2.15 cells (Figure 2B). The data from triplicate experiments were used to examine 50% cytotoxic concentration (CC50) of Juglone, PiB, ATRA, 6,7,4′-THIF, KPT6566, and EGCG via the GraphPad Prism software (Figure 2C). The CC50 values for Juglone and PiB were 30 and 40 μM, respectively. […] However, KPT6566 and EGCG depicted 45 and 80 μM as CC50 values, respectively. We optimized the effects of Juglone and PiB parvulin inhibitors in diverse HBV replicating HCC cell lines at 20 μM concentration. In addition, 30 μM concentrations were used to determine the effects of ATRA, 6,7,4′-THIF, and KPT6566 on HBV replication. While a 40 μM concentration of EGCG was optimized for determining the effects on HBV replication in multiple HCC cell lines.
Figure 2 MTT assay to measure the cytotoxicity of parvulin inhibitors (Juglone, PiB, ATRA, 6,7,4′-THIF, KPT6566, and EGCG). (A) The chemical structures of parvulin inhibitors including Juglone, PiB, ATRA, 6,7,4′-THIF, KPT6566, and EGCG are shown. (B) Huh7, HepAD38, HepG2, and HepG2.2.15 cells were exposed to varying concentrations (10 μM, 20 μM, 30 μM, 50 μM, and 100 μM) of inhibitors Juglone, PiB, ATRA, 6,7,4′-THIF, KPT6566, and EGCG for 48 h and values were determined via MTT assay. (C) The concentrations of Juglone, PiB, ATRA, 6,7,4′-THIF, KPT6566, and EGCG at which cell viability was reduced to 50% (CC50) to that of the control (cells treated by the solvent) were determined. TEXT PRINTED IN THE PICTURE: (C) Juglone: CC50: 30 | (C) PiB: CC50: 40 | (C) ATRA: CC50: 45 | (C) 6,7,4 THIF: CC50: 50 | (C) KPT6566: CC50: 45 | (C) EGCG: CC50: 80 DOUBTS OF THE COPYIST ABOUT THIS PICTURE: All CC50 labels in panel C are printed small and blurred, and no unit is printed with them / Juglone, CC50: 30 or 50 / ATRA, CC50: 45 or 46 / 6,7,4 THIF, CC50: 50 or 60 / KPT6566, CC50: 45 or 46 / EGCG, CC50: 80 or 30, first digit partly overlapped by an error bar
The cytotoxic effects of parvulin inhibitors (Juglone, PiB, ATRA, 6,7,4′-THIF, KPT6566, and EGCG) via MTT (3-[4,5-dimethylththiazol-2-yl]-2,5-diphenyltetrazolium bromide) assay were determined in Huh7, HepAD38, HepG2, and HepG2.2.15 cell lines. The cells were grown in 96-well microplates and incubated with serial dilutions of Juglone, PiB, ATRA, 6,7,4′-THIF, KPT6566, or EGCG for 48 h at 37°C. The cellular viabilities were examined after replacing the culture medium with 100 μl of MTT in DMEM. After 3 h, 100 μl of DMSO was added to dissolve the formazan of MTT. The absorbance value was measured at 570 nm via plate reader. Afterward, the concentrations of Juglone, PiB, ATRA, 6,7,4′-THIF, KPT6566, and EGCG at which cell viability was reduced to 50% (CC50) to that of the control were determined.

[2] = test system: HBV replication in Huh7, HepAD38, HepG2, and HepG2.2.15 cells; type: cell-based, hepatitis B virus
PIN4 = PIN4 (Homo sapiens, UniProt Q9Y237); assay: PIN4 expression by immunoblotting in HCC cells; type: cell-based; details: 30 μM ATRA, 72 h
[3] = 72 h, 20 μM Juglone or PiB, 30 μM ATRA, 6,7,4′-THIF or KPT-6566, 40 μM EGCG, vs solvent

Sequence of PIN4 (Q9Y237 whole entry): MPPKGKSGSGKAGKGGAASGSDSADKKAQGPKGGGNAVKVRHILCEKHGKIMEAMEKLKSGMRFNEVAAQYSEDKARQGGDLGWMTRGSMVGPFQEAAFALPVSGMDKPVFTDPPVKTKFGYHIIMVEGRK

Compound | HBV cccDNA levels (HBV cccDNA) | CC50 at 48 h [1] | HBV RNA levels / HBV transcription (Northern blotting) [2, 3] | HBc expression, core particle synthesis and HBV DNA levels [2, 3] | HBV RNA levels / HBV transcription (Northern blotting) [2] | HBc expression, core particle synthesis and HBV DNA levels [2] | expression level of PIN4 (PIN4)
O=c1c(-c2ccc(O)cc2)coc2cc(O)c(O)cc12 [6,7,4′-THIF, 6,7-dihydroxy-3-(4-hydroxyphenyl)-4H-chromen-4-one] | without affecting HBV cccDNA levels | 50 µM | significantly aborted | significantly aborted |  |  | 
CC1=C(/C=C/C(C)=C/C=C/C(C)=C/C(=O)O)C(C)(C)CCC1 [ATRA, All-trans-retinoic acid] | without affecting HBV cccDNA levels | 45 µM |  |  | reduced | reduced | reduced
O=C(O[C@@H]1Cc2c(O)cc(O)cc2O[C@@H]1c1cc(O)c(O)c(O)c1)c1cc(O)c(O)c(O)c1 [EGCG, Epigallocatechin gallate] | without affecting HBV cccDNA levels | 80 µM | lower levels | reduced significantly |  |  | 
O=C1C=CC(=O)c2c(O)cccc21 [Juglone, 5-hydroxyl-1,4-naphthoquinone] | without affecting HBV cccDNA levels | 30 µM | significantly decreased | dramatically reduced |  |  | 
CC(C)(C)c1ccc(S(=O)(=O)N=C2C=C(SCC(=O)O)C(=O)c3ccccc32)cc1 [KPT6566, 2-[[4-[[[4-(1,1-dimethylethyl)phenyl]sulfonyl]imino]-1,4-dihydro-1-oxo-2-naphthalenyl]thio] acetic acid] | without affecting HBV cccDNA levels | 45 µM | restricted | restricted |  |  | 
CCOC(=O)CN1C(=O)c2ccc3c4c(ccc(c24)C1=O)C(=O)N(CC(=O)OCC)C3=O [PiB, 1,3,6,8-tetrahydro-1,3,6,8-tetraoxo-benzo [lmn][3,8] phenanthroline-2,7-diacetic acid, 2,7-diethyl ester] | without affecting HBV cccDNA levels | 40 µM | significantly reduced | notably abrogated |  |  | 
